How the values were obtained:
[1] = tested on: Corn Earworm (CEW) (Helicoverpa zea); assay: Bioassays on Corn Earworm (CEW), 128-well diet tray assay; type: in vivo; settings: 168 h, 50 μg/cm^2 test compound on artificial diet, second instar larvae, 25° C., five to seven days, average of eight wells, read-out: CEW Rating (% mortality)
In short: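 Second-instar larvae (one to five per well) placed on artificial diet treated with 50 μg/cm^2 compound in 90:10 acetone-water, dried; eight wells per compound. Held at 25° C, 14:10 light-dark, five to seven days; percent mortality averaged over wells.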

[2] = tested on: Beet Armyworm (BAW) (Spodoptera exigua); assay: Bioassays on Beet Armyworm (BAW), 128-well diet tray assay; type: in vivo; settings: 168 h, 50 μg/cm^2 test compound on artificial diet, second instar larvae, 25° C., five to seven days, average of eight wells, read-out: BAW Rating (% mortality)
In short: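 Second-instar larvae (1–5 per well) on artificial diet surface-treated with 50 μg/cm^2 compound applied in 90:10 acetone-water and dried; eight wells per compound. Held 5–7 days at 25° C., 14:10 light-dark. Percent mortality scored per well and averaged over eight wells.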

Row | SMILES | mortality at 50 µg/cm2 [1] [%] | mortality at 50 µg/cm2 [2] [%]
1 | N#Cc1cc(/C=C/C(c2cccc(Cl)c2)C(F)(F)F)ccc1-n1cncn1 (stereo not drawn) [DC32] | 0 | 0
2 | N#Cc1cc(/C=C/C(c2cc(Cl)cc(C(F)(F)F)c2)C(F)(F)F)ccc1-n1cncn1 (stereo not drawn) [DC33] | 50 to 100 | 50 to 100
3 | COc1c(Cl)cc(C(/C=C/c2ccc(-n3cncn3)c(C#N)c2)C(F)(F)F)cc1Cl (stereo not drawn) [DC34] | 50 to 100 | 50 to 100
4 | N#Cc1cc(/C=C/C(c2cc(Cl)c(F)c(Cl)c2)C(F)(F)F)ccc1-n1cncn1 (stereo not drawn) [DC35] | 50 to 100 | 50 to 100
5 | Cc1ncn(-c2ccc(/C=C/C(c3cc(Cl)cc(Cl)c3)C(F)(F)F)cc2C#N)n1 (stereo not drawn) [DC36] | 0 | 0
6 | N#Cc1cc(/C=C/C(c2cc(Cl)cc(Cl)c2)C(F)(F)F)ccc1-n1cnc([N+](=O)[O-])n1 (stereo not drawn) [DC37] | 50 to 100 | 50 to 100
7 | N#Cc1cc(/C=C/C(c2cc(Cl)cc(Cl)c2)C(F)(F)F)ccc1-n1cnc(N)n1 (stereo not drawn) [DC38] | 50 to 100 | 50 to 100
8 | CC(=O)Nc1ncn(-c2ccc(/C=C/C(c3cc(Cl)cc(Cl)c3)C(F)(F)F)cc2C#N)n1 (stereo not drawn) [DC39] | 50 to 100 | 50 to 100
9 | N#Cc1cc(/C=C/C(c2cc(Cl)c(Cl)c(Cl)c2)C(F)(F)F)ccc1-n1cnc([N+](=O)[O-])n1 (stereo not drawn) [DC40, (E)-2-(3-nitro-1H-1,2,4-triazol-1-yl)-5-(4,4,4-trifluoro-3-(3,4,5-trichlorophenyl)but-1-en-1-yl)benzonitrile] | 50 to 100 | 50 to 100
10 | N#Cc1cc(/C=C/C(c2cc(Cl)c(Cl)c(Cl)c2)C(F)(F)F)ccc1-n1cnc(N)n1 (stereo not drawn) [DC41, (E)-2-(3-amino-1H-1,2,4-triazol-1-yl)-5-(4,4,4-trifluoro-3-(3,4,5-trichlorophenyl)but-1-en-1-yl)benzonitrile] | 50 to 100 | 50 to 100
11 | N#Cc1cc(/C=C/C(c2cc(Cl)c(Cl)c(Cl)c2)C(F)(F)F)ccc1-n1cnc(N(C(=O)C2CC2)C(=O)C2CC2)n1 (stereo not drawn) [DC42, (E)-N-(1-(2-cyano-4-(4,4,4-trifluoro-3-(3,4,5-trichlorophenyl)but-1-en-1-yl)phenyl)-1H-1,2,4-triazol-3-yl)-N-(cyclopropanecarbonyl)cyclopropanecarboxamide] | 50 to 100 | 50 to 100
12 | N#Cc1cc(/C=C/C(c2cc(Cl)c(Cl)c(Cl)c2)C(F)(F)F)ccc1-n1cnc(NC(=O)C2CC2)n1 (stereo not drawn) [DC43, (E)-N-(1-(2-cyano-4-(4,4,4-trifluoro-3-(3,4,5-trichlorophenyl)but-1-en-1-yl)phenyl)-1H-1,2,4-triazol-3-yl)cyclopropanecarboxamide] | 50 to 100 | 50 to 100
13 | Cc1cc(/C=C/C(c2cc(Cl)cc(Cl)c2)C(F)(F)F)cc(C#N)c1-n1cncn1 (stereo not drawn) [DC44] | 50 to 100 | 50 to 100
14 | Cc1cc(/C=C/C(c2cc(Cl)c(Cl)c(Cl)c2)C(F)(F)F)cc(C#N)c1-n1cncn1 (stereo not drawn) [DC45] | 50 to 100 | 50 to 100
15 | N#Cc1cc(/C=C\C(c2cc(Cl)c(F)c(Cl)c2)C(F)(F)F)ccc1-n1cncn1 (stereo not drawn) [DC46] | 50 to 100 | 50 to 100
16 | FC(F)(F)C(/C=C/c1ccc(-n2cncn2)c(Br)c1)c1cc(Cl)cc(Cl)c1 (stereo not drawn) [DC47] | 50 to 100 | 50 to 100
17 | Fc1cc(/C=C/C(c2cc(Cl)cc(Cl)c2)C(F)(F)F)ccc1-n1cncn1 (stereo not drawn) [DC48] | 50 to 100 | 50 to 100
18 | FC(F)(F)C(/C=C/c1ccc(-n2cncn2)c(Cl)c1)c1cc(Cl)c(Cl)c(Cl)c1 (stereo not drawn) [DC49] | 50 to 100 | 50 to 100

Row | SMILES | mortality at 50 µg/cm2 [1] [%] | mortality at 50 µg/cm2 [2] [%]
19 | FC(F)(F)C(/C=C/c1ccc(-n2cncn2)c(Cl)c1)c1cc(Cl)cc(Cl)c1 (stereo not drawn) [DC50] | 50 to 100 | 50 to 100
20 | FC(F)(F)c1cc(/C=C/C(c2cc(Cl)cc(Cl)c2)C(F)(F)F)ccc1-n1cncn1 (stereo not drawn) [DC51] | 50 to 100 | 50 to 100
21 | O=Cc1cc(/C=C/C(c2cc(Cl)cc(Cl)c2)C(F)(F)F)ccc1-n1cncn1 (stereo not drawn) [DC52, (E)-5-(3-(3,5-dichlorophenyl)-4,4,4-trifluorobut-1-en-1-yl)-2-(1H-1,2,4-triazol-1-yl)benzaldehyde] | 0 | 0
22 | OCc1cc(/C=C/C(c2cc(Cl)cc(Cl)c2)C(F)(F)F)ccc1-n1cncn1 (stereo not drawn) [DC53] | 50 to 100 | 0
23 | O=[N+]([O-])c1cc(/C=C/C(c2cc(Cl)cc(Cl)c2)C(F)(F)F)ccc1-n1cncn1 (stereo not drawn) [DC54] | 0 | 0
24 | Nc1cc(/C=C/C(c2cc(Cl)cc(Cl)c2)C(F)(F)F)ccc1-n1cncn1 (stereo not drawn) [DC55] | 0 | 0
25 | CC(=O)Nc1cc(/C=C/C(c2cc(Cl)cc(Cl)c2)C(F)(F)F)ccc1-n1cncn1 (stereo not drawn) [DC56] | 0 | 0
26 | CNc1cc(/C=C/C(c2cc(Cl)cc(Cl)c2)C(F)(F)F)ccc1-n1cncn1 (stereo not drawn) [DC57, (E)-5-(3-(3,5-dichlorophenyl)-4,4,4-trifluorobut-1-en-1-yl)-N-methyl-2-(1H-1,2,4-triazol-1-yl)aniline] | 50 to 100 | 50 to 100
27 | NC(=O)c1cc(/C=C/C(c2cc(Cl)cc(Cl)c2)C(F)(F)F)ccc1-n1cncn1 (stereo not drawn) [DC58] | 0 | 0
28 | N/C(=N\O)c1cc(/C=C/C(c2cc(Cl)cc(Cl)c2)C(F)(F)F)ccc1-n1cncn1 (stereo not drawn) [DC59, (Z)-5-((E)-3-(3,5-dichlorophenyl)-4,4,4-trifluorobut-1-en-1-yl)-N′-hydroxy-2-(1H-1,2,4-triazol-1-yl)benzimidamide] | 0 | 0
29 | CCOC(=O)c1cc(/C=C/C(c2cc(Cl)cc(Cl)c2)C(F)(F)F)ccc1-n1cncn1 (stereo not drawn) [DC60] | 50 to 100 | 50 to 100
30 | O=C(O)c1cc(/C=C/C(c2cc(Cl)cc(Cl)c2)C(F)(F)F)ccc1-n1cncn1 (stereo not drawn) [DC61, (E)-5-(3-(3,5-dichlorophenyl)-4,4,4-trifluorobut-1-en-1-yl)-2-(1H-1,2,4-triazol-1-yl)benzoic acid] | 0 | 0
31 | Cc1cc(/C=C/C(c2cc(Cl)cc(Cl)c2)C(F)(F)F)ccc1-n1cncn1 (stereo not drawn) [DC62] | 50 to 100 | 50 to 100
32 | Cc1cc(/C=C/C(c2cc(Cl)c(Cl)c(Cl)c2)C(F)(F)F)ccc1-n1cncn1 (stereo not drawn) [DC63] | 50 to 100 | 50 to 100
33 | FC(F)(F)C(/C=C/c1ccc(-n2cncn2)c(-c2ccncc2)c1)c1cc(Cl)cc(Cl)c1 (stereo not drawn) [DC64] | 0 | 0
34 | Cc1cc(-n2cncn2)ccc1/C=C/C(c1cc(Cl)cc(Cl)c1)C(F)(F)F (stereo not drawn) [DC65] | 50 to 100 | 0
35 | FC(F)(F)C(/C=C/c1ccc(-n2cncn2)cc1Cl)c1cc(Cl)c(Cl)c(Cl)c1 (stereo not drawn) [DC66] | 50 to 100 | 50 to 100
36 | FC(F)(F)C(/C=C/c1ccc(-n2cncn2)cc1Cl)c1cc(Cl)cc(Cl)c1 (stereo not drawn) [DC67] | 50 to 100 | 50 to 100

From patent US9615576B2, “Pesticidal compositions and processes related thereto” (Dow AgroSciences LLC, priority 2011, dated 2017)
